Our source for the Emax and EC50 values is ChEMBL document CHEMBL1156732, “Identification of SVM-based classification model, synthesis and evaluation of prenylated flavonoids as vasorelaxant agents” (Bioorg Med Chem, 2008).

Test [1] concerns Aorta. In words: Vasorelaxant activity against phenylephrine-induced contraction in Sprague-Dawley rat aorta relative to phenylephrine. It is filed as functional.
Test [2] has as its system Aorta. In words: Vasorelaxant activity against phenylephrine-induced contraction in Sprague-Dawley rat aorta. In kind it is functional, tissue-based.

With `CC(C)=CCc1c(O)cc(O)c2c(=O)cc(-c3cccc(O)c3)oc12`, the Emax – broadly, the greatest response seen or fitted, relative to the assay's reference – in test [1] is 64.6%.
In turn, `CC(C)=CCc1c(O)cc(O)c2c(=O)cc(-c3cccc(Br)c3)oc12` displayed an Emax in test [1] of 82.8%. The midpoint of the response in test [2], the EC50, lay at 95.9 µM.
As for `COc1cc(/C=C/C(=O)c2c(O)cc(O)c(CC=C(C)C)c2O)cc(OC)c1OC`, in test [1], the Emax is 78.5%.
`CC(C)=CCc1c(O)cc(O)c2c1OC(c1cccc(Br)c1)CC2=O` (racemic): the maximal effect (Emax) in test [1] turned out to be 78.2%. Also, the midpoint of the response in test [2], the EC50, lay at 1.56 µM.
For `CC(C)=CCc1c(O)cc(O)c(C(=O)/C=C/c2ccc3c(c2)OCO3)c1O` the same measures were 90% and 4.21 µM.
For `COc1cc(-c2cc(=O)c3c(O)cc(O)c(CC=C(C)C)c3o2)ccc1O` the same measures were 70.6% and 49.3 µM.
The corresponding values for `COc1cc(C2CC(=O)c3c(O)cc(O)c(CC=C(C)C)c3O2)ccc1O` (racemic) are 95.8% and 10.1 µM.
`CC(C)=CCc1c(O)cc(O)c2c1OC(c1ccc3c(c1)OCO3)CC2=O` (racemic) had an Emax in test [1] of 77.3%. Also, in test [2], a half-maximal response (EC50) required 1.32 µM.
The compound `CC(C)=CCc1c(O)cc(O)c(C(=O)/C=C/c2ccc(Cl)cc2)c1O` gave an Emax in test [1] of 64.4%. In addition, the EC50 (commonly the midpoint of the concentration-response curve) in test [2] worked out at 679 µM.
Take `CC(C)=CCc1c(O)cc(O)c2c1OC(c1ccccc1)CC2=O` (racemic): in test [1], the Emax was 122%. The compound further returned an EC50 in test [2] of 5.79 µM.
For `COc1cc(-c2cc(=O)c3c(O)cc(O)c(CC=C(C)C)c3o2)cc(OC)c1OC` the same measures were 90.1% and 64.3 µM.
